Laboratory results as given in patent US11492343B2, “Polymorph of flibanserin and preparation method thereof and use of same” (priority 2016, dated 2022).

How the values were obtained:
[1] = Solubility of crystal forms in pH 6.8 buffer solution (HPLC of filtrate); type: physicochemical; details: for Solubility in pH 6.8 buffer: 20 mg in 1 mL pH 6.8 buffer, suspension equilibrated for 1 hour, 0.45 μm filter, HPLC; for Solubility compared with crystal form A: in physiological solution
Description: The solubility of several new crystal forms prepared in the above examples and Form A (prepared according to the method of WO2003/014079) in a pH buffer solution (pH 6.8) was determined. Precisely weigh 20 mg Form I, Form II, Form V and Form A in a 2-mL glass vial, add 1 mL of pH 6.8 buffer, seal with cap, and mix on a rotating mixer. After the suspension was equilibrated for 1 hour, the mixture was filtered through a 0.45 μm needle filter, and the concentration of flibanserin in the filtrate was analyzed by HPLC to obtain the solubility of different crystal forms.

[2] = prior art WO2003/014079; cited from earlier work
[3] = prior art; cited from earlier work

Row | Compound | Solubility in pH 6.8 buffer [1] [mg/mL] | Solubility compared with crystal form A [1] | Stability under pressure and mechanical stress conditions [2] | Solubility in water [3]
1 | O=c1[nH]c2ccccc2n1CCN1CCN(c2cccc(C(F)(F)F)c2)CC1 [Form I] | 0.004 | greater |  | 
2 | O=c1[nH]c2ccccc2n1CCN1CCN(c2cccc(C(F)(F)F)c2)CC1 [Form V] | 0.010 | greater |  | 
3 | O=c1[nH]c2ccccc2n1CCN1CCN(c2cccc(C(F)(F)F)c2)CC1 [Form II] | 0.008 | greater |  | 
4 | O=c1[nH]c2ccccc2n1CCN1CCN(c2cccc(C(F)(F)F)c2)CC1 [Form B] |  |  | low stability | 
5 | O=c1[nH]c2ccccc2n1CCN1CCN(c2cccc(C(F)(F)F)c2)CC1 [Form A] |  |  |  | very small
